Starred links: 1 amine or outer side, 2 acyl side, 3 side chain; linkers in the order of their positions; H or OH if unused. Positions of bridges follow the written chain, without caps; N, C: chain ends. Non-standard residues stand in square brackets, D forms with d. Residues, ends and D or L forms follow the SMILES beside them. Groups on a side chain read outwards from the residue. *: point of attachment. Me3N+(CH2)2O(CH2)2O(CH2)2CO = C[N+](C)(C)CCOCCOCCC(=O)*; CH2CH2OCH2CH2OCH2CH2NMe3+ = C[N+](C)(C)CCOCCOCC*; Trp(7-Me) = Cc1cccc2c(C[C@H](N)C(=O)O)c[nH]c12; d(hLys(Me3)) = C[N+](C)(C)CCCCC[C@@H](N)C(=O)O; CH2CH2OCH2CH2NMe3+ = C[N+](C)(C)CCOCC*; γGlu = O=C(O)[C@H](CCC(=O)[*:2])N[*:1]; 2Nal = N[C@@H](Cc1ccc2ccccc2c1)C(=O)O; 3Pal = N[C@@H](Cc1cccnc1)C(=O)O; Myristoyl = CCCCCCCCCCCCCC(=O)*; Lys(Me) = CNCCCC[C@H](N)C(=O)O; Pen = CC(C)(S)[C@H](N)C(=O)O; Lauroyl = CCCCCCCCCCCC(=O)*; Thp = NC1(C(=O)O)CCOCC1; X3 = C[N+](C)(C)CCCCC*; AEEA = NCCOCCOCC(=O)O; Sar = CNCC(=O)O

The data set can be described thus: Exposed Polar Surface Area (EPSA). Type of data set: physicochemical. The settings on record: SFC on Chirex 3014 column; sample 1 mM DMSO stock; read-out: EPSA. The procedure, abridged:
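SFC retention on a Chirex 3014 (S)-valine/(R)-1-(α-naphthyl)ethylamine column, 35 °C, CO2 with MeOH (20 mM ammonium formate) gradient 5–60% at 20%/min, 14 MPa outlet. Retention times converted to EPSA (Å^2) via linear calibration with 8 standards; samples from 1 mM DMSO stock, run in duplicate.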
For the molecule `CC(=O)N(C)CCCC[C@@H]1NC(=O)[C@H](Cc2c[nH]c3c(C)cccc23)NC(=O)[C@H]([C@@H](C)O)NC(=O)[C@H](CC(=O)N(C)C)NC(=O)[C@@H](NC(=O)CCOCCOCC[N+](C)(C)C)C(C)(C)SSC(C)(C)[C@@H](C(=O)N[C@@H](Cc2ccc(OCCOCCOCC[N+](C)(C)C)cc2)C(=O)N[C@@H](Cc2ccc3ccccc3c2)C(=O)NC2(C(=O)N[C@@H](CCCCN(C)C(C)=O)C(=O)N[C@@H](CC(N)=O)C(=O)N[C@@H](Cc3cccnc3)C(=O)N(C)CC(N)=O)CCOCC2)NC1=O` [compound 363, cPEG3aCO-Pen(3)-N(N(Me)2)-T-7MeW-K(NMeAc)-Pen(3)-APEG3F-2Nal-THP-K(NMeAc)-N-3Pya-Sar-CONH2] ({Me3N+(CH2)2O(CH2)2O(CH2)2CO}-[Pen]D(NMe2)T[Trp(7-Me)][Lys(Me)](Ac)[Pen]Y(CH2CH2OCH2CH2OCH2CH2NMe3+)[2Nal][Thp][Lys(Me)](Ac)N[3Pal][Sar]-NH2; disulfide 1-6), the EPSA is 155 A^2.
Take `CC(=O)N[C@@H]1C(=O)N[C@@H](COCCOCC[N+](C)(C)C)C(=O)N[C@@H]([C@@H](C)O)C(=O)N[C@@H](Cc2c[nH]c3c(C)cccc23)C(=O)N[C@@H](CCCCN(C)C(C)=O)C(=O)N[C@H](C(=O)N[C@@H](Cc2ccc(OCCOCCOCC[N+](C)(C)C)cc2)C(=O)N[C@@H](Cc2ccc3ccccc3c2)C(=O)NC2(C(=O)N[C@@H](CCCCN(C)C(C)=O)C(=O)N[C@@H](CC(N)=O)C(=O)N[C@@H](Cc3cccnc3)C(=O)N(C)CC(=O)N(C)C)CCOCC2)C(C)(C)SSC1(C)C` [compound 365] (Ac-[Pen]S(CH2CH2OCH2CH2NMe3+)T[Trp(7-Me)][Lys(Me)](Ac)[Pen]Y(CH2CH2OCH2CH2OCH2CH2NMe3+)[2Nal][Thp][Lys(Me)](Ac)N[3Pal][Sar]-NMe2; disulfide 1-6): the EPSA was 150 A^2.
The result for `CCCCCCCCCCCCCC(=O)N[C@@H](CCC(=O)NCCOCCOCC(=O)NCCOCCOCC(=O)NCCCC[C@@H]1NC(=O)[C@@H](NC(=O)[C@@H](CCCCC[N+](C)(C)C)NC(=O)COCCOCCNC(=O)COCCOCCNC(=O)CC[C@H](NC(=O)CCCCCCCCCCCCC)C(=O)O)C(C)(C)SSC(C)(C)[C@@H](C(=O)N[C@@H](Cc2ccc(OCCCCC[N+](C)(C)C)cc2)C(=O)N[C@@H](Cc2ccc3ccccc3c2)C(=O)NC2(C(=O)N[C@@H](CCCCN(C)C(C)=O)C(=O)N[C@@H](CC(N)=O)C(=O)N[C@@H](Cc3cccnc3)C(=O)N(C)CC(=O)N(C)C)CCOCC2)NC(=O)[C@H](CCCCN(C)C(C)=O)NC(=O)[C@H](Cc2c[nH]c3c(C)cccc23)NC(=O)[C@H]([C@@H](C)O)NC1=O)C(=O)O` [compound 374, C14gEPEG2PEG2CO-hk(Me)3-Pen(3)-K(PEG2PEG2gEC14)-T-7MeW-K(NMeAc)-Pen(3)-TMAPF-2Nal-THP-K(NMeAc)-N-3Pya-Sar-CON(Me)2] ({Myristoyl-γGlu-AEEA-AEEA}-[d(hLys(Me3))][Pen]K([AEEA-AEEA-γGlu-Myristoyl])T[Trp(7-Me)][Lys(Me)](Ac)[Pen]Y(X3)[2Nal][Thp][Lys(Me)](Ac)N[3Pal][Sar]-NMe2; disulfide 2-7) reads 170 A^2; that for `CCCCCCCCCCCCCC(=O)N[C@@H](CCC(=O)NCCOCCOCC(=O)NCCOCCOCC(=O)NCCCC[C@H](NC(=O)C1(NC(=O)[C@H](Cc2ccc3ccccc3c2)NC(=O)[C@H](Cc2ccc(OCCCCC[N+](C)(C)C)cc2)NC(=O)[C@H]2NC(=O)[C@H](CCCCN(C)C(C)=O)NC(=O)[C@H](Cc3c[nH]c4c(C)cccc34)NC(=O)[C@H]([C@@H](C)O)NC(=O)[C@H](CC(=O)N(C)C)NC(=O)[C@@H](NC(=O)[C@@H](CCCCC[N+](C)(C)C)NC(=O)COCCOCCNC(=O)COCCOCCNC(=O)CC[C@H](NC(=O)CCCCCCCCCCCCC)C(=O)O)C(C)(C)SSC2(C)C)CCOCC1)C(=O)N[C@@H](CC(N)=O)C(=O)N[C@@H](Cc1cccnc1)C(=O)N(C)CC(=O)N(C)C)C(=O)O` [compound 376, C14gEPEG2PEG2CO-hk(Me)3-Pen(3)-N(N(Me)2)-T-7MeW-K(NMeAc)-Pen(3)-TMAPF-2Nal-THP-K(PEG2PEG2gEC14)-N-3Pya-Sar-CON(Me)2] ({Myristoyl-γGlu-AEEA-AEEA}-[d(hLys(Me3))][Pen]D(NMe2)T[Trp(7-Me)][Lys(Me)](Ac)[Pen]Y(X3)[2Nal][Thp]K([AEEA-AEEA-γGlu-Myristoyl])N[3Pal][Sar]-NMe2; disulfide 2-7), 176 A^2.
Consider `CCCCCCCCCCCC(=O)N[C@@H](CCC(=O)NCCOCCOCC(=O)NCCOCCOCC(=O)NCCCC[C@@H]1NC(=O)[C@@H](NC(=O)[C@@H](CCCCNC(=O)COCCOCCNC(=O)COCCOCCNC(=O)CC[C@H](NC(=O)CCCCCCCCCCC)C(=O)O)NC(=O)CCOCCOCC[N+](C)(C)C)C(C)(C)SSC(C)(C)[C@@H](C(=O)N[C@@H](Cc2ccc(OCCCCC[N+](C)(C)C)cc2)C(=O)N[C@@H](Cc2ccc3ccccc3c2)C(=O)NC2(C(=O)N[C@@H](CCCCN(C)C(C)=O)C(=O)N[C@@H](CC(N)=O)C(=O)N[C@@H](Cc3cccnc3)C(=O)N(C)CC(=O)N(C)C)CCOCC2)NC(=O)[C@H](CCCCN(C)C(C)=O)NC(=O)[C@H](Cc2c[nH]c3c(C)cccc23)NC(=O)[C@H]([C@@H](C)O)NC1=O)C(=O)O` [compound 380, cPEG3aCO-k(PEG2PEG2gEC12)-Pen(3)-K(PEG2PEG2gEC12)-T-7MeW-K(NMeAc)-Pen(3)-TMAPF-2Nal-THP-K(NMeAc)-N-3Pya-Sar-CON(Me)2] ({Me3N+(CH2)2O(CH2)2O(CH2)2CO}-[dK]([AEEA-AEEA-γGlu-Lauroyl])[Pen]K([AEEA-AEEA-γGlu-Lauroyl])T[Trp(7-Me)][Lys(Me)](Ac)[Pen]Y(X3)[2Nal][Thp][Lys(Me)](Ac)N[3Pal][Sar]-NMe2; disulfide 2-7), for which the EPSA was 171 A^2.
As to `CCCCCCCCCCCCCC(=O)N[C@@H](CCC(=O)NCCOCCOCC(=O)NCCOCCOCC(=O)NCCCC[C@@H]1NC(=O)[C@@H](NC(=O)[C@@H](CCCCNC(=O)COCCOCCNC(=O)COCCOCCNC(=O)CC[C@H](NC(=O)CCCCCCCCCCCCC)C(=O)O)NC(=O)CCOCCOCC[N+](C)(C)C)C(C)(C)SSC(C)(C)[C@@H](C(=O)N[C@@H](Cc2ccc(OCCCCC[N+](C)(C)C)cc2)C(=O)N[C@@H](Cc2ccc3ccccc3c2)C(=O)NC2(C(=O)N[C@@H](CCCCN(C)C(C)=O)C(=O)N[C@@H](CC(N)=O)C(=O)N[C@@H](Cc3cccnc3)C(=O)N(C)CC(=O)N(C)C)CCOCC2)NC(=O)[C@H](CCCCN(C)C(C)=O)NC(=O)[C@H](Cc2c[nH]c3c(C)cccc23)NC(=O)[C@H]([C@@H](C)O)NC1=O)C(=O)O` [compound 381, cPEG3aCO-k(PEG2PEG2gEC14)-Pen(3)-K(PEG2PEG2gEC14)-T-7MeW-K(NMeAc)-Pen(3)-TMAPF-2Nal-THP-K(NMeAc)-N-3Pya-Sar-CON(Me)2] ({Me3N+(CH2)2O(CH2)2O(CH2)2CO}-[dK]([AEEA-AEEA-γGlu-Myristoyl])[Pen]K([AEEA-AEEA-γGlu-Myristoyl])T[Trp(7-Me)][Lys(Me)](Ac)[Pen]Y(X3)[2Nal][Thp][Lys(Me)](Ac)N[3Pal][Sar]-NMe2; disulfide 2-7), the EPSA was 171 A^2.
Turning to `CCCCCCCCCCCCCC(=O)N[C@@H](CCC(=O)NCCOCCOCC(=O)NCCOCCOCC(=O)NCCCC[C@@H]1NC(=O)[C@@H](NC(=O)CCOCCOCC[N+](C)(C)C)C(C)(C)SSC(C)(C)[C@@H](C(=O)N[C@@H](Cc2ccc(OCCCCC[N+](C)(C)C)cc2)C(=O)N[C@@H](Cc2ccc3ccccc3c2)C(=O)NC2(C(=O)N[C@@H](CCCCN(C)C(C)=O)C(=O)N[C@@H](CC(N)=O)C(=O)N[C@@H](Cc3cccnc3)C(=O)N(C)CC(=O)N(C)C)CCOCC2)NC(=O)[C@H](CCCCN(C)C(C)=O)NC(=O)[C@H](Cc2c[nH]c3c(C)cccc23)NC(=O)[C@H]([C@@H](C)O)NC1=O)C(=O)O` [compound 388, cPEG3aCO-Pen(3)-K(PEG2PEG2gEC14)-T-7MeW-K(NMeAc)-Pen(3)-TMAPF-2Nal-THP-K(NMeAc)-N-3Pya-Sar-CON(Me)2] ({Me3N+(CH2)2O(CH2)2O(CH2)2CO}-[Pen]K([AEEA-AEEA-γGlu-Myristoyl])T[Trp(7-Me)][Lys(Me)](Ac)[Pen]Y(X3)[2Nal][Thp][Lys(Me)](Ac)N[3Pal][Sar]-NMe2; disulfide 1-6), the EPSA stood at 161 A^2.
On to `CC(=O)N(C)CCCC[C@@H]1NC(=O)[C@H](Cc2c[nH]c3c(C)cccc23)NC(=O)[C@H]([C@@H](C)O)NC(=O)[C@H](CCCCNC(=O)CCOCCOCC[N+](C)(C)C)NC(=O)[C@@H](NC(=O)CCOCCOCC[N+](C)(C)C)C(C)(C)SSC(C)(C)[C@@H](C(=O)N[C@@H](Cc2ccc(OCCCCC[N+](C)(C)C)cc2)C(=O)N[C@@H](Cc2ccc3ccccc3c2)C(=O)NC2(C(=O)N[C@@H](CCCCN(C)C(C)=O)C(=O)N[C@@H](CC(N)=O)C(=O)N[C@@H](Cc3cccnc3)C(=O)N(C)CC(=O)N(C)C)CCOCC2)NC1=O` [compound 393, cPEG3aCO-Pen(3)-K(cPEG3a)-T-7MeW-K(NMeAc)-Pen(3)-TMAPF-2Nal-THP-K(NMeAc)-N-3Pya-Sar-CON(Me)2] ({Me3N+(CH2)2O(CH2)2O(CH2)2CO}-[Pen]K(Me3N+(CH2)2O(CH2)2O(CH2)2CO)T[Trp(7-Me)][Lys(Me)](Ac)[Pen]Y(X3)[2Nal][Thp][Lys(Me)](Ac)N[3Pal][Sar]-NMe2; disulfide 1-6), for which the EPSA is 144 A^2.
The result for `CCCCCCCCCCCCCC(=O)N[C@@H](CCC(=O)NCCOCCOCC(=O)NCCOCCOCC(=O)NCCCC[C@H](NC(=O)C1(NC(=O)[C@H](Cc2ccc3ccccc3c2)NC(=O)[C@H](Cc2ccc(OCCCCC[N+](C)(C)C)cc2)NC(=O)[C@H]2NC(=O)[C@H](CCCCN(C)C(C)=O)NC(=O)[C@H](Cc3c[nH]c4c(C)cccc34)NC(=O)[C@H]([C@@H](C)O)NC(=O)[C@H](CC(=O)N(C)C)NC(=O)[C@@H](NC(=O)[C@@H](CCCCNC(=O)COCCOCCNC(=O)COCCOCCNC(=O)CC[C@H](NC(=O)CCCCCCCCCCCCC)C(=O)O)NC(=O)CCOCCOCC[N+](C)(C)C)C(C)(C)SSC2(C)C)CCOCC1)C(=O)N[C@@H](CC(N)=O)C(=O)N[C@@H](Cc1cccnc1)C(=O)N(C)CC(=O)N(C)C)C(=O)O` [compound 395, cPEG3aCO-k(PEG2PEG2gEC14)-Pen(3)-N(N(Me)2)-T-7MeW-K(NMeAc)-Pen(3)-TMAPF-2Nal-THP-K(PEG2PEG2gEC14)-N-3Pya-Sar-CON(Me)2] ({Me3N+(CH2)2O(CH2)2O(CH2)2CO}-[dK]([AEEA-AEEA-γGlu-Myristoyl])[Pen]D(NMe2)T[Trp(7-Me)][Lys(Me)](Ac)[Pen]Y(X3)[2Nal][Thp]K([AEEA-AEEA-γGlu-Myristoyl])N[3Pal][Sar]-NMe2; disulfide 2-7) reads 189 A^2.

The values are drawn from patent publication US20260022143A1, “Cyclic Peptide Inhibitors of IL-23” (JANSSEN PHARMACEUTICA NV, priority 2022, published 2026).
